# According to patent US9387184B2, “Pharmaceutical compositions for combination therapy” (Saniona A/S, priority 2012, dated 2016):
# Assays:
# [1] = Real-time feeding monitoring (food intake) in telemetrized rats; format: in vivo, rat; conditions: for effect on food intake per se: antihypertensive drug alone, p.o.; for effect on tesofensine-induced reduction in food intake: co-administered with tesofensine 3.0 mg/kg p.o., Metoprolol 10, 20 mg/kg, Telmisartan 1.0, 3.0 mg/kg p.o.
# Description: (§1) Five months-old male normotensive Sprague-Dawley rats (508±18 g, Harlan, Horst, The Netherlands) were housed in solid bottomed Plexiglas cages with dust free wood chippings and a cardboard tube. Holding rooms were maintained under a 12-h light/dark cycle (lights off: 1500 h). Ambient temperature was 18.0 to 22.0° C. and relative air humidity of 40 to 60%. A dim red light was the sole source of illumination during the dark period. The rats had ad libitum standard chow (Altromin 1324, 10% kcal from fat, energy density 2.85 kcal per g, Altromin GmbH, Lage, Germany) and water. All experiments were approved (permission no. 2007/561-1343) and conducted in accordance with the guidelines of the Animal Experimentation Inspectorate, Ministry of Justice, Denmark.
# (§2) Upon 2-3 weeks of post-surgery recovery, the rats were transferred to fully automated food intake monitoring cages (HM-2, MBRose, Faaborg, Denmark) modified to simultaneously determine individualized food intake (by microchip, see below) and cardiovascular condition (by telemetry). For combined telemetry analysis, two receivers (RPC-1, Data Sciences International, St. Paul, Minn.) were placed in the bottom of each HM-2 food intake monitoring cages thereby fully covering the cage surface area. The modified HM-2 food intake monitoring cages were placed in a modified ventilated cabinet with lightproof doors and a light kit for cabinet-based control of light-dark cycle (Scanbur BK, Karslunde, Denmark) being similar to that in the holding rooms. Cabinet temperature was 24.0 to 26.0° C. and relative air humidity of 40 to 60%. The animals were habituated to the HM-2 food intake monitoring system for at least 5 days prior to initiation of drug treatment procedures. Prior to re-housing to the fully automated food intake monitoring cages, the rats were subcutaneuosly injected with a microchip (#402575, eVet, Haderslev, Denmark) to simultaneously identify, and in real-time mode to track feeding behavior of each individual animal throughout the entire experiment. Locomotor activity was detected by an integrated infrared sensor placed above the cage. Standard HM-2 control unit settings are reported previously in further details^7. All drugs and saline vehicle were administered 30 min before dark onset. All rats received the same treatment in each individual experiment, i.e. a parallel study design was used, and a wash-out period of at least 5 days was used between treatments to assure re-establishment of baseline levels of food intake, locomotor activity, heart rate and blood pressure. The home cage was removed from the HM-2 food intake monitoring system during the drug administration procedure and returned immediately after completion of the drug administration, whereupon automated monitoring of feeding behavior and cardiovascular parameters of each individual animal was resumed. Body weight was measured daily. Body weight and microstructural food intake analysis was performed using a data reporting software (HMView, MBRose, Faaborg, Denmark).
# (§3) Data were fed into a standard graphic and statistical analysis program (GraphPad Prism v.4.03). Body weight data were calculated as absolute values (g) or daily body weight gain relative (control level=100%) to the first day of drug administration (day 0). Body weight gain and food intake were expressed as means±S.E.M of n individual animals. After acquisition of telemetry data, 12-hour means were calculated using Microsoft Excel 2007. Finally, statistical analysis and data presentation (mean±S.E.M.) was performed using GraphPad Prism v.4.03). All data were evaluated using a repeated-measure one-way ANOVA with Tukey's post-hoc test was applied to perform statistical comparisons between treatment groups. A p-value less than 0.05 was considered statistically significant.
# (§4) All drugs were administered p.o. (1.0 ml/kg). […]
# [2] = Body weight in telemetrized rats; format: in vivo, rat; conditions: for effect on body weight regulation per se: antihypertensive drug alone, p.o.; for effect on tesofensine-induced reduction in body weight: co-administered with tesofensine 3.0 mg/kg p.o., Metoprolol 10, 20 mg/kg, Telmisartan 1.0, 3.0 mg/kg p.o.
# Description: as §1, §2, §3, §4
# [3] = Telemetric monitoring of heart rate and blood pressure in rats; format: in vivo, rat
# Description: as §1
# The rats were implanted at Harlan laboratories, Horst, the Netherlands, with Data Science International (DSI, St. Paul, USA) Physiotel PA-C40 transmitters according to the manufactures description. In brief, the rats were anaesthetized with isoflurane, ventilated, and a laparotomy was performed under aseptic conditions. A pressure catheter was inserted and sealed in place with Vetbond (3M, St. Paul, USA) into the isolated abdominal aorta. Finally, the transmitter was placed on top of the intestines, in parallel to the long axis of the body, and secured to the abdominal wall, where after the abdominal muscle layer and skin was closed with solvable sutures. The animals were allowed full post-surgical recovery before shipment. Blood pressure (systolic and diastolic arterial blood pressure) and heart rate (pulse rate) data were collected at a sampling rate of 500 Hz using Dataquest A.R.T (v.4.3) and Ponemah software (v.5.0) (DSI, St. Paul, USA) using factory-provided calibration values for the individual transmitters and an Ambient Pressure Reference Monitor (DSI, St. Paul, USA) to ensure accurate blood pressure measurements. Data were collected continuously for 48 h and binned in 5 s intervals.
# as §2, with “The home cage was removed from the HM-2 food intake monitoring system during the drug administration procedure and returned immediately after completion of the drug administration, whereupon automated monitoring of feeding behavior and cardiovascular parameters of each individual animal was resumed. Body weight was measured daily. Body weight and microstructural food intake analysis was performed using a data reporting software (HMView, MBRose, Faaborg, Denmark).” left out
# [4] = Locomotor activity in telemetrized rats (infrared sensor); format: in vivo, rat
# Description: as §1
# Upon 2-3 weeks of post-surgery recovery, the rats were transferred to fully automated food intake monitoring cages (HM-2, MBRose, Faaborg, Denmark) modified to simultaneously determine individualized food intake (by microchip, see below) and cardiovascular condition (by telemetry). For combined telemetry analysis, two receivers (RPC-1, Data Sciences International, St. Paul, Minn.) were placed in the bottom of each HM-2 food intake monitoring cages thereby fully covering the cage surface area. […] Locomotor activity was detected by an integrated infrared sensor placed above the cage. […] Body weight was measured daily. […]
# as §3, with “Finally, statistical analysis and data presentation (mean±S.E.M.) was performed using GraphPad Prism v.4.03).” left out, “A p-value less than 0.05 was considered statistically significant.” left out
# [5] = long-term treatment, corrected for placebo and diet effects; cited from earlier work
# [6] = 3.0-5.0 mg/kg p.o., acute, evident for at least 48 hours, compared to vehicle-treated rats
# [7] = tesofensine 1.0-5.0 mg/kg p.o., acute
compound,measurement,setting,value
CCCc1nc2c(C)cc(-c3nc4ccccc4n3C)cc2n1Cc1ccc(-c2ccccc2C(=O)O)cc1 [Telmisartan],effect on food intake per se,[1],neither antihypertensive drug exhibited an effect
same,effect on tesofensine-induced reduction in food intake,[1],did also not affect tesofensine-induced reductions in food intake
same,effect on body weight regulation per se,[2],neither antihypertensive drug exhibited an effect
same,effect on tesofensine-induced reduction in body weight,[2],did also not affect
same,effect on tesofensine-induced rise in heart rate,[3]; Telmisartan 1.0 and 3.0 co-treatment with tesofensine 3.0 mg/kg p.o.,did not revert the rise in heart rate
same,"heart rate and blood pressure, drug alone",[3]; Telmisartan alone 3.0 mg/kg p.o.,no effect on heart rate and blood pressure
same,effect on Tesofensine-induced increases in diastolic and systolic blood pressure,"[3]; Telmisartan co-treatment with tesofensine 3.0 mg/kg p.o., p>0.05 compared to Tesofensine alone",did not lead to a significant prevention of Tesofensine-induced hypertension
same,heart rate compared to tesofensine alone,[3]; highest dose of Telmisartan (3.0 mg/kg) combined with tesofensine 3.0 mg/kg p.o.,significant increase in heart rate as compared to tesofensine administration alone
"COCCc1ccc(OCC(O)CNC(C)C)cc1 (centres unmarked) [Metoprolol, 1-(Isopropylamino)-3-[4-(2-methoxyethyl)-phenoxy]-propan-2-ol]",effect on food intake per se,[1],neither antihypertensive drug exhibited an effect
same,effect on tesofensine-induced reduction in food intake,[1],did also not affect tesofensine-induced reductions in food intake
same,effect on body weight regulation per se,[2],neither antihypertensive drug exhibited an effect
same,effect on tesofensine-induced reduction in body weight,[2],did also not affect
same,effect on tesofensine-induced locomotor activity,"[4]; co-administered with tesofensine 3.0 mg/kg p.o., compared to tesofensine alone",completely prevented the locomotor activity inducing effect by tesofensine
same,effect on tesofensine-induced tachycardia,[3]; Metoprolol 10 mg/kg and 20 mg/kg co-treatment with tesofensine 3.0 mg/kg p.o.,fully reversed tesofensine-induced tachycardia
same,effect on tesofensine-evoked increase in diastolic pressure,"[3]; Metoprolol 20 mg/kg co-treatment with tesofensine 3.0 mg/kg p.o., first light phase, 12-24 hours post-treatment",reversed by co-treatment with Metoprolol
same,effect on tesofensine-induced rise in systolic blood pressure,"[3]; Metoprolol 20 mg/kg co-treatment with tesofensine 3.0 mg/kg p.o., for up to 24 hours",normalization of the systolic blood pressure
same,"diastolic blood pressure, drug alone","[3]; Metoprolol 20 mg/kg p.o. alone, first 24 hours",did not produce any significant effects on diastolic blood pressure
same,duration of heart rate lowering effect,"[3]; Metoprolol 10 and 20 mg/kg p.o., after administration",up to 24 hours
CCOC[C@@H]1[C@@H](c2ccc(Cl)c(Cl)c2)C[C@@H]2CC[C@H]1N2C [Tesofensine],duration of hypophagic effect,"[1]; 5.0 mg/kg p.o., acute",≤ 48 h
same,duration of hypophagic effect,"[1]; 3.0-5.0 mg/kg p.o., acute",≤ 24 h
same,duration of hypophagic effect,"[1]; all doses (1.0-5.0 mg/kg p.o.), acute",up to 12 hours
same,food intake relative to the control level,"[1]; tesofensine 5.0 mg/kg p.o., acute, 12 hours post-dosing, p<0.001",approximately 50%
same,net body weight loss (absolute),[2]; [6],8 to 11 g
same,net body weight loss (relative),[2]; [6],1.0-1.5%
same,locomotor activity,"[4]; 3.0-5.0 mg/kg p.o., acute","significant, albeit short-lasting, increase in locomotor activity"
same,duration of induced locomotor activity,[4]; first dark phase after acute dosing,up to 12 hours
same,systolic blood pressure,"[3]; tesofensine 3.0 mg/kg and 5.0 mg/kg p.o., up to 48 hours after administration",dose-dependent modest increase in systolic blood pressure
same,heart rate,"[3]; tesofensine 3.0 mg/kg p.o., Telmisartan combination study",significantly increase heart rate
same,duration of heart rate increase,[3]; [7],up to 48 hours
same,heart rate,[3]; [7],dose-dependent increase in heart rate at all doses tested
same,diastolic blood pressure,"[3]; tesofensine 1.0-5.0 mg/kg p.o., highest dose not significant (p=0.204)",trend towards a dose-dependent rise in diastolic blood pressure
same,weight loss in obese patients,[5],about 10%
